Results on one compound are retold here after US20220241416A1, “METHODS FOR THE IDENTIFICATION OF SARM1 NADASE ACTIVITY INHIBITORS AND USES THEREOF” (Bar Ilan University, priority 2021, published 2022).

One experiment addresses T1, hSARM1 (Homo sapiens, UniProt Q6SZW1).
T1 construct: hSARM1w.t; (26ERL . . . GPT724) that was not mutated in E642, was also expressed and isolated; 6xHis (N); TEV cleavage site (N); made in house; host or cells: HEK293F suspension cells
T1 sequence (Q6SZW1 with tags, fused parts or gaps): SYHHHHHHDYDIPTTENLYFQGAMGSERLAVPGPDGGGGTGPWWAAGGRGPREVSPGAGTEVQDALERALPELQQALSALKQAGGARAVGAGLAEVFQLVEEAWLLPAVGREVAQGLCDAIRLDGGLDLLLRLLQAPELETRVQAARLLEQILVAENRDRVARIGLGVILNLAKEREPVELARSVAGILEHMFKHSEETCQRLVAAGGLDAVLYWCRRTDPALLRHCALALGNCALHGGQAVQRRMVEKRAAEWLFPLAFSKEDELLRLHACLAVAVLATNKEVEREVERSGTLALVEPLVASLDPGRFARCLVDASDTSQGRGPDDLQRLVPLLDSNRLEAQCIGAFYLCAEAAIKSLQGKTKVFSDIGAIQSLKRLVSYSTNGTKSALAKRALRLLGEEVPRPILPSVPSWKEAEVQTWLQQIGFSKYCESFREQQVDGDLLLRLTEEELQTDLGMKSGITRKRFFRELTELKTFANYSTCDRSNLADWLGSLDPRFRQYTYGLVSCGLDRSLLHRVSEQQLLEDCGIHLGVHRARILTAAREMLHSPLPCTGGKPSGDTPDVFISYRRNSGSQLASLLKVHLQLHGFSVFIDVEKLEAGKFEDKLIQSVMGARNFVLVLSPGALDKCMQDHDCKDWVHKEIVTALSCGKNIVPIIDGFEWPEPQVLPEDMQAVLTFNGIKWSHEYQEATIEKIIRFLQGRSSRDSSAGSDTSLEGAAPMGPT
Put plainly: High-throughput resazurin fluorescence inhibitor screen. The experiment is classed as biochemical. The settings on record: 1 mM NAM; pre-incubation 10 minutes at room temperature. The method, then: The high-throughput inhibitor-screening assay was preformed using the MultiDrop 384 microplate dispenser (Thermo Scientific) and 1536-well black/black non-binding Microplates (Greiner Bio-One).
First, 10 nano-liters of each of the 142000 screened compounds, solubilized in DMSO, were plated using Echo® 550 Liquid Handler (Sunny vale, CA, USA). Then. 5 micro liters of purified SARM1 (at 50 Nano-Molar concentration) in 25 mM HEPES pH 7.5, 150 mM NaCl were added to each well for 10 minutes incubation in 25° C. Next, 2.5 Micro Liters of NAD+(in 0.25 Micro-Molar concentration, in 25 mM HEPES pH 7.5, 150 mM NaCl) were added to each well and incubated for 70 min at 37° C. The compounds concentration at this point were […].
Measurement of NAD+ concentrations were made by a modified enzymatic coupled cycling assay. […] Fluorescent signals were measured by PheraStar FS plate reader (BMG Labtech, Ortenberg, Germany) at 540-nm excitation and 590-nm emission wavelengths. […]
To discover new and effective inhibitors for hSARM1, we have applied a modified fluorescence assay for high throughput screening. The adaptations introduced in this assay aim to achieve: stable fluorescent signal over time, good sensitivity for inhibition by screened compounds, high signal-to-noise, good reproducibility, accuracy, and diminishing of false-positive readouts. […]

In a further experiment the target is T2, zfSARM1 (Danio rerio, UniProt F1QWA8).
T2 sequence (F1QWA8 1-713): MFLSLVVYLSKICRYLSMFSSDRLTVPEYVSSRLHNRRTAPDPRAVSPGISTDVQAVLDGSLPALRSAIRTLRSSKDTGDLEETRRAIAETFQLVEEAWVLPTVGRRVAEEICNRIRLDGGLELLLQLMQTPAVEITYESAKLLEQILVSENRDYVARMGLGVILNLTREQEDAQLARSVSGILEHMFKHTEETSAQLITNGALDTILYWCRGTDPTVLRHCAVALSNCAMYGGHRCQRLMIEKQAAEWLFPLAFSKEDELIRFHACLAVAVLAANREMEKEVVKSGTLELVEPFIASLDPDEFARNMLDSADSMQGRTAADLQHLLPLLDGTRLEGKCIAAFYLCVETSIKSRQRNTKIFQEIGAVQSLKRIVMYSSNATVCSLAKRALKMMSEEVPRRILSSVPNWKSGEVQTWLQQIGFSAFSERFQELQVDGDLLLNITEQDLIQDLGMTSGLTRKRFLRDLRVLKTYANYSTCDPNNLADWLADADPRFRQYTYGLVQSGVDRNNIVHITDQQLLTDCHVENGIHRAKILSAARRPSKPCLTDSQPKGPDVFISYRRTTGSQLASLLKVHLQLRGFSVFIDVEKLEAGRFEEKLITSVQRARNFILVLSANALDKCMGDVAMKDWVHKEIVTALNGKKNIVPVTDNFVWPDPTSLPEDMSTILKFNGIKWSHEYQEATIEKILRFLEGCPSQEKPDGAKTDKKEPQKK
Kind of experiment: Effect of hSARM1 inhibitors on zfSARM1 NADase activity (ADPR by HPLC). The experiment is classed as biochemical, Zebrafish. The settings on record: 50 μM NAD+; ADPR production by HPLC.

With `NC(=O)c1cccnc1` [NAM, nicotinamide, reference compound], the “fluorescence output response” value on hSARM1 is recorded as “hSARM1 inhibition”. Also, the IC50 at zfSARM1 was determined as 227 µM.
